Measurements published in patent US20130012466A1 (priority 2006, published 2013).
Like-named read-outs stand apart in the source and are kept apart here.

Assays:
A549 = assay: Cytotoxicity assay (cell titer-glo and calcein AM), A549
tubulin = assay: In vitro tubulin polymerization assay (fluorescence-based); assay type: biochemical; settings: for effect on tubulin polymerization / microtubules: tested in duplicate on at least two days
Description: In vitro tubulin polymerization assays were performed using a fluorescence-based assay (Cytoskeleton, Inc., Denver, Colo.). […] Aliquots (5 μL) of each compound or control were added to a 96-well black half area plate (Corning Costar, Inc.) pre-warmed to 37° C. Cold tubulin reaction mix (50 μL 1× Buffer—80 mM piperazine-N,N′-bis[2-ethanesulfonic acid]sequisodium salt; 2.0 mM magnesium chloride; 0.5 mM ethylene glycol-bis[β-amino-ethyl ether) N,N,N′,N′-tetra-acetic acid, pH 6.9, 10 μM fluorescent reporter; 20% tubulin glycerol buffer—80 mM piperazine-N,N′-bis[2-ethanesulfonic acid] sequisodium salt; 2.0 mM magnesium chloride; 0.5 mM ethylene glycol-bis(β-amino-ethyl ether) N,N,N′,N′-tetra-acetic acid, 60% v/v glycerol, pH 6.9, 1 mM GTP; and 2 mg mL^−1 tubulin stock) was added to each of the compounds. […] Polymerization curves were generated in Excel after background correction and the effects of test compounds were compared to controls.
Library members that accelerated the rate of tubulin polymerization were deemed microtubule stabilizers, whereas compounds that decelerated the rate of tubulin polymerization were deemed microtubule de-stabilizers.

MCF7 = assay: Cytotoxicity assay (cell titer-glo and calcein AM), MCF7
SK-OV-3 = assay: Cytotoxicity assay (cell titer-glo and calcein AM), SK-OV-3
Du145 = assay: Cytotoxicity assay (cell titer-glo and calcein AM), Du145
ADR-RES = assay: Cytotoxicity assay (cell titer-glo and calcein AM), ADR-RES; settings: NCI/ADR RES, % error in parentheses
[1] = test system: mouse mammary normal epithelial control cell line; assay: Cytotoxicity assay, normal control cell line
Hep3B = assay: Cytotoxicity assay (cell titer-glo and calcein AM), Hep3B
SF-268 = assay: Cytotoxicity assay (cell titer-glo and calcein AM), SF-268
NCI-H460 = assay: Cytotoxicity assay (cell titer-glo and calcein AM), NCI-H460
A549 cells [2] = assay: Drug combination study with paclitaxel (Chou-Talalay combination index); settings: for plus paclitaxel, mean CI / plus paclitaxel, median CI: combination index, paclitaxel held at IC10, A549 cells; for interaction with paclitaxel/taxol: drug combination, A549 cells, Chou-Talalay; for synergy (paclitaxel): combination index class, combination with paclitaxel, Chou-Talalay method;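 on all read-outs here: combination indexes averaged only over points where fraction affected exceeded 0.2, with each synergy experiment repeated at least three times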
A549 cells [3] = assay: Drug combination study with colchicine (Chou-Talalay combination index); settings: for plus colchicine, mean CI / plus colchicine, median CI: combination index, colchicine held at IC10, A549 cells; for interaction with colchicine: drug combination, A549 cells, Chou-Talalay
[4] = read-out: Cytotoxicity IC50, A549, CTG, A549, CTG (cell titer-glo) readout, % error in parentheses
[5] = read-out: Cytotoxicity IC50, A549, calcein, A549, calcein AM readout, % error in parentheses
[6] = read-out: Cytotoxicity IC50, MCF7, CTG, CTG (cell titer-glo) readout, % error in parentheses
[7] = read-out: Cytotoxicity IC50, MCF7, calcein, calcein AM readout, % error in parentheses
[8] = read-out: Cytotoxicity IC50, SK-OV-3, CTG, SK-OV-3, CTG (cell titer-glo) readout, % error in parentheses
[9] = read-out: Cytotoxicity IC50, SK-OV-3, calcein, SK-OV-3, calcein AM readout, % error in parentheses
[10] = read-out: Cytotoxicity IC50, Du145, CTG, Du145, CTG (cell titer-glo) readout, % error in parentheses
[11] = read-out: Cytotoxicity IC50, Du145, calcein, Du145, calcein AM readout, % error in parentheses
[12] = read-out: Cytotoxicity IC50, NCI/ADR RES, CTG, CTG (cell titer-glo) readout
[13] = read-out: Cytotoxicity IC50, NCI/ADR RES, calcein, calcein AM readout
[14] = read-out: Cytotoxicity IC50, NmuMG, CTG, CTG (cell titer-glo) readout, % error in parentheses
[15] = read-out: Cytotoxicity IC50, NmuMG, calcein, calcein AM readout, % error in parentheses
[16] = read-out: Cytotoxicity IC50, Hep 3B, CTG, Hep 3B, CTG (cell titer-glo) readout, % error in parentheses
[17] = read-out: Cytotoxicity IC50, Hep 3B, calcein, Hep 3B, calcein AM readout, % error in parentheses
[18] = read-out: Cytotoxicity IC50, SF-268, CTG, SF-268, CTG (cell titer-glo) readout, % error in parentheses
[19] = read-out: Cytotoxicity IC50, SF-268, calcein, SF-268, calcein AM readout, % error in parentheses
[20] = read-out: Cytotoxicity IC50, NCI-H460, CTG, NCI-H460, CTG (cell titer-glo) readout, % error in parentheses
[21] = read-out: Cytotoxicity IC50, NCI-H460, calcein, NCI-H460, calcein AM readout, % error in parentheses

Row | Molecule | IC50 (A549; [4]) [nM] | IC50 (A549; [5]) [nM] | effect on tubulin polymerization / microtubules (tubulin) | IC50 (MCF7; [6]) [nM] | IC50 (MCF7; [7]) [nM] | IC50 (SK-OV-3; [8]) [nM] | IC50 (SK-OV-3; [9]) [nM] | IC50 (Du145; [10]) [nM] | IC50 (Du145; [11]) [nM] | IC50 (ADR-RES; [12]) [nM] | IC50 (ADR-RES; [13]) [nM] | IC50 [1, 14] [nM] | IC50 [1, 15] [nM] | IC50 (Hep3B; [16]) [nM] | IC50 (Hep3B; [17]) [nM] | IC50 (SF-268; [18]) [nM] | IC50 (SF-268; [19]) [nM] | IC50 (NCI-H460; [20]) [nM] | IC50 (NCI-H460; [21]) [nM] | plus paclitaxel, mean CI (A549 cells [2]) | other results
1 | COc1cc2c(c(OC)c1OC)-c1ccc(OC)c(=O)cc1[C@@H](NC(=O)CN(OC)[C@@H]1O[C@H](C(=O)O)[C@H](O)[C@H](O)[C@H]1O)CC2 [Col18, D-Galacturonoside] | 1100 | 1070 | no effect | 1160 | 1490 | 1080 | 1070 | 1120 | 1190 | 1110 | 828 | 2090 | 2620 | 2000 | 2270 | 834 | 1110 | 993 | 1130 |  | 
2 | COc1cc2c(c(OC)c1OC)-c1ccc(OC)c(=O)cc1[C@@H](NC(=O)CN(OC)[C@@H]1O[C@H](CO)[C@@H](O)[C@H](O)[C@H]1F)CC2 [Col34, 2-fluoro-2-deoxy-D-glucoside] | 545 | 778 | destabilized microtubules | 242 | 254 | 325 | 800 |  | 328 | > 1000 | > 1000 | 451 | 760 | 545 | 1170 | 281 | 452 | > 1000 | > 1000 | 0.18 | plus paclitaxel, median CI (A549 cells [2]): 0.12; interaction with paclitaxel/taxol (A549 cells [2]): strong synergism; plus colchicine, mean CI (A549 cells [3]): 31.49; plus colchicine, median CI (A549 cells [3]): 21.50; interaction with colchicine (A549 cells [3]): strong antagonism
3 | COc1cccc2c1C(=O)c1c(O)c3c(c(O)c1C2=O)C[C@@](O)(C(=O)CO)C[C@@H]3O[C@H]1C[C@H](N)[C@H](O)[C@H](C)O1 [doxorubicin, reference compound] |  |  | no apparent effect |  |  |  |  |  |  |  |  |  |  |  |  |  |  |  |  |  | IC50 (A549; Homo sapiens, A549, read-out: IC50 (A549)): 770 nM; tubulin polymeriz. (tubulin): no effect; IC50 (SK-OV-3; Homo sapiens, SK-OV-3, read-out: IC50 (SK-OV-3)): 621 nM; IC50 (Du145; Homo sapiens, DU-145, read-out: IC50 (Du145)): 339 nM; IC50 (Hep3B; Homo sapiens, Hep3B, read-out: IC50 (Hep3B)): 268 nM; IC50 (SF-268; Homo sapiens, SF-268, read-out: IC50 (SF-268)): 385 nM; IC50 (NCI-H460; Homo sapiens, NCI-H460, read-out: IC50 (NCI-H460)): 1000 nM
4 | COc1cc2c(c(OC)c1OC)-c1ccc(OC)c(=O)cc1[C@@H](NC(=O)CN(OC)[C@@H]1O[C@H](CO)[C@@H](N=[N+]=[N-])[C@H](O)[C@H]1O)CC2 [Col44, 4-deoxy-4-azido-D-glucoside] | 315 | 649 | destabilized microtubules | 596 | 676 | > 1000 | > 1000 | > 1000 | > 1000 | > 1000 | > 1000 | 1420 | 3660 | 453 | 671 | 229 | 412 | > 1000 | > 1000 |  | 
5 | 6-deoxy-6-acyl-D-galactoside [Col56] | 1910 | 2090 | no apparent effect | 3130 | 812 | 901 | 1180 | 1150 | 1090 | 1160 | 994 | 1520 | 1490 | 1480 | 2230 | 1760 | > 1000 | 1550 | 1090 |  | tubulin polymeriz. (tubulin): no effect
6 | 19-(N-METHOXYAMINO-N-22-DEOXY-D-RIBOSYL)COLCHICINE [Col21] |  |  |  |  |  |  |  |  |  |  |  |  |  |  |  |  |  |  |  | 4.96 | synergy (paclitaxel) (A549 cells [2]): — (moderate antagonism, Cl 1.2-1.45); plus paclitaxel, median CI (A549 cells [2]): 2.50; plus colchicine, mean CI (A549 cells [3]): 1.01; plus colchicine, median CI (A549 cells [3]): 0.64
7 | COc1cc2c(c(OC)c1OC)-c1ccc(OC)c(=O)cc1[C@@H](N)CC2 [Col 6, deacetyl colchicine] |  |  |  |  |  |  |  |  |  |  |  |  |  |  |  |  |  |  |  | 0.57 | plus paclitaxel, median CI (A549 cells [2]): 0.20; interaction with paclitaxel/taxol (A549 cells [2]): synergy; plus colchicine, mean CI (A549 cells [3]): 2.32; plus colchicine, median CI (A549 cells [3]): 1.96; interaction with colchicine (A549 cells [3]): antagonism
8 | COc1cc2c(c(OC)c1OC)-c1ccc(OC)c(=O)cc1[C@@H](NC(C)=O)CC2 [colchicine, reference compound] |  |  |  |  |  |  |  |  |  |  |  |  |  |  |  |  |  |  |  | 0.77 | synergy (paclitaxel) (A549 cells [2]): ++ (moderate synergism, Cl 0.7-0.85); plus paclitaxel, median CI (A549 cells [2]): 0.18
9 | COc1cc2c(c(OC)c1OC)-c1ccc(OC)c(=O)cc1[C@@H](NC(=O)CN(OC)[C@@H]1O[C@H](CO)[C@@H](O[C@H]3O[C@H](CO)[C@@H](O)[C@H](O)[C@H]3O)[C@H](O)[C@H]1O)CC2 [Col38, D-maltoside] | 244 | 508 | destabilized microtubules | 291 |  | 252 | 316 | 215 | 342 | 199 | 173 | 976 | 875 | 229 | 1390 | 160 | 319 | 112 | 487 |  | 
10 | COc1cc2c(c(OC)c1OC)-c1ccc(OC)c(=O)cc1[C@@H](NC(=O)CN(OC)[C@@H]1O[C@H](C)[C@@H](O)[C@H](O)[C@H]1O)CC2 [Col2, 6-deoxy-D-glucoside] | 8780 | 7940 |  | 4860 | 4770 | 9860 | > 10000 | > 10000 | > 7790 | > 10000 | > 10000 | > 10000 | > 10000 | > 10000 | > 10000 | 8430 | > 10000 | 7240 | 5420 |  | 
11 | COc1cc2c(c(OC)c1OC)-c1ccc(OC)c(=O)cc1[C@@H](NC(=O)CN(OC)[C@@H]1O[C@H](C(=O)O)[C@@H](O)[C@H](O)[C@H]1O)CC2 [Col15, D-glucuronoside] | 2210 | 3920 |  | 990 | 4410 | 1070 | 2880 | 1270 | 1640 | 1660 | 1540 | > 5000 | > 5000 | 3280 | 3440 | 1170 | 1020 | 1080 | 960 |  | 
